Read-outs that look alike come from different tables or passages of the source. Where a SMILES comes first, the peptide text is derived from it.
What was measured:
N36 (gp41 NHR peptide) = target: T1, N36 (gp41 NHR peptide) (Human immunodeficiency virus type 1 group M subtype B, UniProt P04578); experiment: CD spectroscopy and thermal midpoint analysis of peptide/N36 complexes; format: physicochemical, HIV-1
T1 construct: gp41 NHR (“N36”, 546-581); made in house; host or cells: chemical solid-phase FMOC synthesis
T1 sequence (P04578 546-581): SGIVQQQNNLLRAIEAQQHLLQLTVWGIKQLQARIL
Protocol: Briefly, each peptide or peptide mixture was dissolved in phosphate-buffered saline (PBS: 50 mM sodium phosphate and 150 mM NaCl, pH 7.2) at the final concentration of 10 μM and incubated at 37 °C for 30 min before cooling down to 4 °C. The CD spectra of each sample were acquired on a Jasco spectropolarimeter (Model J-815, Jasco Inc., Japan) at 4 °C using a 5 nm bandwidth, 0.1 nm resolution, 0.1 cm path length and an average time of 5.0 sec. Spectra were corrected by the subtraction of a blank corresponding to the solvent composition of each sample. Thermal midpoint analysis was used to determine the temperature at which 50% of the 6-HB formed by the CHR and NHR would decompose. It was monitored at 222 nm from 4 °C to 98 °C by applying a thermal gradient of 5 °C/min. The melting curve was smoothed and the midpoint of the thermal unfolding transition (Tm) values was calculated using Jasco software utilities as described above.

[1] = test system: HIV-1IIIB (subtype B, X4); experiment: Inhibition of HIV-1 IIIB infection by peptides in the presence of sera from HIV-1-infected patients; format: cell-based; conditions: for IC50: MT-2 cells, triplicate, mean ± SD
Protocol: Inhibition of peptides on HIV-1IIIB (subtype B, X4)infection in the presence of HIV-1-infected patients’ sera was determined as previously described. Briefly, each peptide was mixed with serially diluted serum from an HIV-1-infected patient at room temperature for 30 min. Next, the mixture of peptide/serum and HIV-1 (100 TCID50) were added to MT-2 cells (1 × 10^5/ml) in RPMI 1640 medium containing 10% FBS. After incubation at 37 °C overnight, the culture supernatants were replaced with fresh culture medium.

92UG024 (D) = format: cell-based; conditions: primary HIV-1 isolate, subtype D; read-out: IC50 (nM), infection by primary isolate 92UG024 (D)
94US_33931N (B) = conditions: read-out: IC50 (nM), infection by primary isolate 94US_33931N (B); primary HIV-1 isolate, subtype B
[2] = test system: T20-resistant HIV-1 variant V38E/N42S; format: cell-based
NP1525 (A/E) = format: cell-based; conditions: primary HIV-1 isolate, subtype A/E; read-out: IC50 (nM), infection by primary isolate NP1525 (A/E)
[3] = target: T2, gp41 6-HB formation between N36 and C34 (Human immunodeficiency virus type 1 group M subtype B, UniProt P04578); experiment: biochemical; format: biochemical, HIV-1
T2 construct: gp41 NHR (“N36”, 546-581); made in house; host or cells: chemical solid-phase FMOC synthesis
T2 sequence (P04578 546-581): as above
Protocol: Inhibition of gp41 six-helix bundle formation by a testing peptide was determined with a sandwich ELISA described previously. […] A450 was determined by an ELISA reader (Ultra 384, Tecan).

[4] = test system: T20-resistant HIV-1 variant V38A/N42D; format: cell-based
[5] = test system: T20-resistant HIV-1 variant V38A; format: cell-based
[6] = test system: HIV-1IIIB (subtype B, X4); conditions: read-out: IC50, inhibition of infection by HIV-1IIIB; MT-2 cells, 100 TCID50, p24 ELISA day 4; triplicate, repeated twice
Excerpt: (§1) Then, the culture supernatants were changed to fresh media. On the fourth day post-infection, culture supernatants were collected for detection of p24 antigen by ELISA. […] Then, the culture supernatants were changed to fresh media. On the fourth day post-infection, the culture supernatants were discarded and fresh media were complemented again. The supernatants were collected on the seventh day post-infection and tested for p24 antigen by ELISA as previously described. The percent inhibition of p24 production was calculated.

HIV-1Bal (subtype B, R5) = conditions: read-out: IC50, inhibition of infection by HIV-1Bal; M7 cells, 100 TCID50, p24 ELISA day 7; triplicate, repeated twice
Excerpt: as §1

[7] = test system: T20-resistant HIV-1 variant N42T/N43K; format: cell-based
93BR020 (F) = format: cell-based; conditions: primary HIV-1 isolate, subtype F; read-out: IC50 (nM), infection by primary isolate 93BR020 (F)
BCF020 (Group O) = conditions: read-out: IC50 (nM), infection by primary isolate BCF020 (Group O), primary HIV-1 isolate
[8] = test system: preexisting antibodies in sera from HIV-1-infected patients; experiment: Sandwich ELISA: cross-reactivity of peptides with preexisting antibodies in HIV-1-infected patients; format: binding, human; conditions: peptide coated at 10 μg/ml, serially diluted sera, 37 °C 1 h, A450
Protocol: A sandwich ELISA was conducted to determine the cross-reactivity of the peptides with the preexisting antibodies in HIV-1-infected patients. […] The wells were then blocked with 1% gelatin, followed by addition of 50 μl of serially diluted sera from HIV-1-infected patients and incubation at 37 °C for 1 h. Then, HRP-labeled goat-anti-human IgG (Abcam, UK) and TMB were added sequentially. A450 was determined with an ELISA reader (Ultra 384, Tecan).

[9] = test system: T20-resistant HIV-1 variant V38A/N42T; format: cell-based
in vivo = conditions: male, Sprague-Dawley (SD), rat, plasma, iv, 1 mg/kg
Protocol: Four male SD rats weighing approximately 200 g each were obtained from the Shanghai Medical School Animal Center and were used for the half-life assay. […] After injection, blood samples were acquired from rat orbit at several time points (8 and 30 min and 1.5, 3, 6, 9, 12 and 24 h after peptide injection) and placed in clean tubes. […] Then, HRP-labeled rabbit-anti-mouse IgG (Sigma, USA) and TMB were added in order. Absorbance at 450 nm was determined by an ELISA reader (Ultra 384, Tecan). The standard peptide parameters were obtained first. Then, the plasma peptide concentrations were determined as a function of time and the half-life was calculated by using PK Solver for Microsoft Excel to obtain pharmacokinetic parameters.

93IN101 (C) = conditions: read-out: IC50 (nM), infection by primary isolate 93IN101 (C); primary HIV-1 isolate, subtype C

CC[C@H](C)[C@H](NC(=O)[C@H](CO)NC(=O)[C@H](CCC(=O)O)NC(=O)[C@H](CCC(=O)O)NC(=O)[C@H](CCC(N)=O)NC(=O)[C@H](CCCCN)NC(=O)[C@H](CCCCN)NC(=O)[C@@H](NC(=O)[C@H](CCC(N)=O)NC(=O)[C@H](CCC(=O)O)NC(=O)[C@H](CCC(=O)O)NC(=O)[C@@H](NC(=O)[C@H](CCCCN)NC(=O)[C@H](CCCCN)NC(=O)[C@@H](NC(=O)[C@H](CC(C)C)NC(=O)[C@H](CCC(=O)O)NC(=O)[C@H](CCC(=O)O)NC(=O)[C@H](CO)NC(=O)[C@H](CCCCN)NC(=O)[C@H](CCCCN)NC(=O)[C@@H](NC(=O)[C@H](CC(C)C)NC(=O)[C@H](CCC(=O)O)NC(=O)[C@H](CCC(=O)O)NC(=O)[C@@H](NC(=O)[C@H](CCCCN)NC(=O)[C@H](CCCCN)NC(=O)[C@H](CC(=O)O)NC(=O)[C@H](Cc1c[nH]c2ccccc12)NC(=O)[C@H](CCC(=O)O)NC(=O)[C@H](CCC(=O)O)NC(=O)[C@H](Cc1c[nH]c2ccccc12)NC(=O)[C@@H](NC(=O)[C@H](CCSC)NC(C)=O)[C@@H](C)O)[C@@H](C)CC)[C@@H](C)CC)[C@@H](C)CC)[C@@H](C)CC)[C@@H](C)CC)C(=O)N[C@@H](CCCCN)C(=O)N[C@@H](CCCCN)C(N)=O [AP3] (Ac-MTWEEWDKKIEELIKKSEELIKKIEEQIKKQEESIKK-NH2)
Tm of complex with N36 (N36 (gp41 NHR peptide); CD thermal denaturation at 222 nm, 4 to 98 °C, 5 °C/min, 10 μM in PBS pH 7.2): 83.6 ^oC | α-helix content of complex with N36 (N36 (gp41 NHR peptide); CD, peptide/N36 mixture 10 μM in PBS pH 7.2, 4 °C): 77.84% | Fold change of IC50, HPS-1 ([1]; HPS-1 relative to N): 0.7 | Fold change of IC50, HPS-2 ([1]; HPS-2 relative to N): 0.2 | Fold change of IC50, HPS-3 ([1]; HPS-3 relative to N): 0.2 | Fold change of IC50, HPS-4 ([1]; HPS-4 relative to N): 0.1 | Fold change of IC50, HPS-5 ([1]; HPS-5 relative to N): 0.2 | IC50 ([1]; in presence of serum of HIV-1-infected patient HPS-1, read-out: IC50 (nM), HIV-1 IIIB infection, HPS-1): 17.7 ± 4.3 nM | IC50 ([1]; in presence of serum of HIV-1-infected patient HPS-2, read-out: IC50 (nM), HIV-1 IIIB infection, HPS-2): 5.1 ± 0.7 nM | IC50 ([1]; in presence of serum of HIV-1-infected patient HPS-3, read-out: IC50 (nM), HIV-1 IIIB infection, HPS-3): 4.2 ± 0.4 nM | IC50 ([1]; in presence of serum of HIV-1-infected patient HPS-4, read-out: IC50 (nM), HIV-1 IIIB infection, HPS-4): 2 ± 0.6 nM | IC50 ([1]; in presence of serum of HIV-1-infected patient HPS-5, read-out: IC50 (nM), HIV-1 IIIB infection, HPS-5): 5.1 ± 0.8 nM | IC50 (92UG024 (D)): 16.5 ± 0.2 nM | IC50 (94US_33931N (B)): 10.2 ± 0.7 nM | IC50 [2]: 42.4 ± 11.6 nM | IC50 (NP1525 (A/E)): 32.3 ± 8.8 nM | IC50 [3]: 240 nM | fold more potent than AP1 against 6-HB formation ([3]; AP3 versus AP1): about 30 fold | fold more potent than AP2 against 6-HB formation ([3]; AP3 versus AP2): ~15 fold | IC50 [4]: 31.3 ± 6.62 nM | IC50 [5]: 12.6 ± 2.66 nM | IC50 [6]: 3.06 nM | IC50 (HIV-1Bal (subtype B, R5)): 15.1 nM | IC50 [7]: 35.2 ± 12.5 nM | IC50 (93BR020 (F)): 19.9 nM | IC50 (BCF020 (Group O)): 21.9 ± 0.1 nM | reactivity with antibodies in sera from five HIV-1-infected patients [8]: none of the three artificial peptides AP1, AP2 and AP3 was recognized | IC50 [9]: 90 ± 21.5 nM | MRT (in vivo): 8.69 h | half-life (in vivo): 6.02 h | IC50 (93IN101 (C)): 16.3 ± 1.5 nM

— PMC4541410 (Scientific Reports, 2015)
